Legend:
photoreceptors [1] = assay: Poly I:C-induced dry AMD model, ONL thickness; format: in vivo, mice
From the text: (§1) In this example, the mechanism of photoreceptor cell death in dry AMD was investigated using a polyinosinic:polycytidylic acid (Poly I:C)-induced dry AMD model (Yang et al. (2009) NEJM 359(14):1456-63). Poly I:C is a synthetic double-stranded RNA (dsRNA) analog that activates toll-like receptor 3 (TLR3) signaling (FIG. 20A). Furthermore, dsRNA are known to exist in the drusen of human AMD patients. As depicted in FIG. 20A, activation of the TLR3 signaling results in activation of RIP-1 kinase pathway. […] In the experiments described herein, 2-3 μl of Poly I:C (1 mg/ml) was injected into the subretinal space of the eye (e.g., approximately 2-3 μg of Poly I:C was administered to the eye) to induce AMD.
The thickness of the outer nuclear layer (ONL) was also determined in WT or RIP-3−/− mice at 14 days following treatment with poly I:C. Sections were randomly selected from either WT or RIP-3−/− mice following poly I:C treatment and the retina was photographed. The ONL thickness was measured in each section by masked observers.
(§2) To determine the effect of Nec-1 and a pan-caspase inhibitor in the treatment of AMD, TUNEL assay was performed to assess photoreceptor cell death in the poly I:C induced AMD model. […] The thickness of ONL was also measured.

photoreceptors [2] = assay: Normalized ONL thickness ratio after experimental retinal detachment; format: in vivo, rat; settings: subretinal Z-VAD 300 μM and/or Nec-1 400 μM
Method: Photoreceptor death was also assessed by TUNEL analysis at three days after retinal detachment in retina treated with either vehicle, Nec-1, Z-VAD or Nec-1+Z-VAD. […] Nine sections for each eye specimen were randomly selected, and the central area of detached retina and the mid-peripheral region of attached retina were photographed. The ONL thickness ratio was measured at ten points in each section by masked observers. […] (GCL: ganglion cell layer, INL: inner nuclear layer. *, P<0.05. Scale bar, 100 μm). […]
TNF-α protein contents in rat retina were determined using ELISA Kit for rat TNF-α (Invitrogen, Carlsbad, Calif.). Goat anti-mouse/rat TNF-α blocking antibody was purchased from R&D Systems (Minneapolis, Minn.). The rat eyes were subretinally injected with 1% of sodium hyaluronate containing 0.1 mg/ml of anti-TNF-α antibody or control antibody.

primary RPE cells = assay: Viability of primary RPE cells treated with poly I:C (Cell Counting Kit-8); format: cell-based, mice; settings: WT primary RPE cells, 5 μg/ml poly I:C for 48 hours
Method: As described in Example 11, primary RPE cells were extracted from the retina of mice and cultured in the presence of 5 μg/ml of poly I:C for 48 hours or with PBS. Cell viability was measured using Cell Counting Kit-8 (Dojindo Laboratories, Kumamoto, Japan). This assay is based on the cleavage of 2-(2-methoxy-4-nitrophenyl)-3-(4-nitrophenyl)-5-(2,4-disulfophenyl)-2H-tetrazolium, monosodium salt (WST-8) by the mitochondrial dehydrogenase enzyme to produce a formazan dye. After incubation with WST-8 for two hours at 37° C., absorbance was measured at 450 nm to determine cell viability.

NF-κB p65 = assay: Western blot for phospho-NF-κB p65 after retinal detachment; format: in vivo
From the text: FIG. 16 is a photograph of an immunoblot from a Western blot analysis for phospho-NFκB p65 in control retina without a retinal detachment and in retina three days after retinal detachment with treatment of vehicle, Z-VAD or Z-VAD+Nec-1 (lane-loading differences were normalized by the level of β-tubulin).
The vitreous and neural retina combined was collected on day 3 after retinal detachment. Samples were run on 4-12% SDS-polyacrylamide gel electrophoresis and transferred onto PVDF membrane. After blocking with 3% nonfat dried milk, the membrane was reacted with RIP-3 (1:10000; Sigma, Saint Louis, […].), RIP-1 (1:2000; BD Biosciences), phosphoserine (1:2000; Enzo, Plymouth Meeting, Pa.) or anti-phosphorylated NF-κB p65 (1:1000; Cell signaling) antibody. Membranes were then developed with enhanced chemiluminescence. Lane-loading differences were normalized by β-tubulin (1:1000; Cell Signaling).
For Western Blot analysis, the vitreous and neural retina combined, were collected at three days after retinal detachment. Samples were run on 4-12% SDS-polyacrylamide gel electrophoresis and transferred onto PVDF membrane. After blocking with 3% nonfat dried milk, the membrane was reacted with anti-light chain 3 antibody (1:1000; Cell signaling), anti-phosphorylated ribosomal protein S6 antibody (1:1000; Cell Signaling) or anti-phosphorylated NF-κB p65 antibody (1:1000; Cell Signaling). […]

photoreceptors [3] = assay: TEM quantification of apoptotic and necrotic photoreceptor death after retinal detachment; format: in vivo; settings: day three after retinal detachment, ONL
Method: The morphology of photoreceptors after retinal detachment was examined by transmission electron microscopy (TEM) and propidium iodide (PI) staining and the effect of treatment with Z-VAD and/or a Nec-1 compound of Formula I-C was analyzed.
TEM was performed as previously described (Hisatomi T et al. (2008). J. CLIN. INVEST. 118:2025-2038). […] Over 200 photoreceptors each eye were photographed and subjected to quantification of cell death modes in a masked fashion. Photoreceptors showing cellular shrinkage and nuclear condensation were defined as apoptotic cells, while photoreceptors associated with cellular and organelle swelling and discontinuities in nuclear and plasma membrane were defined as necrotic cells. The presence of electron-dense granular materials were reported to occur subsequent to both apoptotic and necrotic cell death and cells with these findings were labeled simply as end-stage cell death/unclassified (Hisatomi T et al. (2003) AM. J. PATHOL. 162:1869-1879; Erickson P A et al. (1983) INVEST. OPHTHALMOL. VIS. SCI. 24:927-942).
On day three after retinal detachment, photoreceptor death caused by apoptosis was almost twice that caused by necrosis in vehicle-treated retina (% apoptotic cells: 21.7±1.3%, necrotic cells: 13.3±1.0%, unclassified: 4.4±1.4%; FIGS. 7A and 7E).

photoreceptors [4] = assay: Normalized ONL thickness ratio after retinal detachment in RIP-3−/− mice; settings: five days after retinal detachment, RIP-3−/− mice
Method: TUNEL assays were used to measure the amount of apoptotic and necrotic cell death (Grasl-Kraupp et al., HEPTALOGY (1995) 21(5):1465-8). TUNEL and quantification of TUNEL positive cells in ONL were performed as described above by using the ApopTag Fluorescein In Situ Apoptosis Detection Kit (Millipore, Billerica, Mass.). The ratio of the ONL thickness to the thickness of neuroretina in the central area of the detached retina was determined by National Institutes of Health ImageJ software and standardized by that in the attached retina. The data are expressed as normalized ONL thickness ratio [(ONL/neuroretina thickness in detached retina)/(ONL/neuroretina thickness in attached retina)].

photoreceptors [5] = assay: TUNEL-positive photoreceptors in ONL after experimental retinal detachment; format: in vivo, rat
photoreceptors [6] = assay: TUNEL-positive cells after retinal detachment in RIP-3−/− mice; format: in vivo; settings: three days after retinal detachment
Method: The role of RIP-3 in RIP-mediated programmed necrosis in photoreceptor loss after retinal detachment was investigated in RIP-3 knockout (RIP-3−/−) mice. TUNEL assays were used to measure the amount of apoptotic and necrotic cell death (Grasl-Kraupp et al., HEPTALOGY (1995) 21(5):1465-8). TUNEL and quantification of TUNEL positive cells in ONL were performed as described above by using the ApopTag Fluorescein In Situ Apoptosis Detection Kit (Millipore, Billerica, Mass.).

photoreceptors [7] = assay: Poly I:C-induced dry AMD model, TUNEL-positive cells in ONL; format: in vivo, mice; settings: compared with vehicle
From the text: as §1
The thickness of the ONL was determined by the National Institutes of Health ImageJ software. […] Specifically, the number of TUNEL-positive cells in the RIP-3−/− mice treated with poly I:C was at least three fold less than control mice consistent with RIP-3 playing a role in mediating programmed necrosis in AMD (FIG. 22B).
as §2

CN1C(=O)NC(Cc2c[nH]c3c(Cl)cccc23)C1=O (stereo not shown) [Nec-1]
ONL thickness (photoreceptors [1]): minimal effect | normalized ONL thickness ratio (photoreceptors [2]; five days after retinal detachment): 0.58±0.12 | normalized ONL thickness ratio (photoreceptors [2]; three days after retinal detachment): 0.71±0.09 | viability of RPE cells (primary RPE cells): did not protect RPE cells | NF-κB p65 phosphorylation (NF-κB p65): no effect | % apoptotic cells (TEM) (photoreceptors [3]): 19.8±2.0% | % necrotic cells (TEM) (photoreceptors [3]): 13.1±1.4% | % unclassified (end-stage cell death, TEM) (photoreceptors [3]): 2.8±0.4% | normalized ONL thickness ratio (photoreceptors [4]): 0.761±0.049 | number of TUNEL-positive cells in the ONL (photoreceptors [5]; day three after retinal detachment, subretinal Z-VAD 300 μM and/or Nec-1 400 μM at detachment): 1067.5±95.5 cells/mm^2 | number of TUNEL-positive cells (photoreceptors [6]): 786.7±278.7 cells/mm^2 | number of TUNEL-positive cells in ONL (photoreceptors [7]): slight effect

C[C@H](NC(=O)C(=O)Nc1ccccc1C(C)(C)C)C(=O)N[C@@H](CC(=O)O)C(=O)COc1c(F)c(F)cc(F)c1F [IDN-6556, (3-{2-[(2-tert-butyl-phenylaminooxalyl)-amino]-propionylamino}-4-oxo-5-(2,3,5,6-tetrafluoro-phenoxy)-pentanoic acid)]
neuroprotective effect / photoreceptor loss (TUNEL-positive photoreceptors and ONL thickness ratio) (photoreceptors [5]; day three after retinal detachment in rats, subretinal injection): did not show any neuroprotective effect
